Data on seven substances can be found in patent publication US20250325676A1, “CAMPTOTHECIN PRODRUG AND PHARMACEUTICAL COMPOSITION THEREOF” (TIANJIN HEMAY ONCOLOGY PHARMACEUTICAL CO., LTD, priority 2022, published 2025).

For one experiment, the system named is BxPC-3. The experiment can be described thus: In vitro inhibition of human tumor cells, BxPC-3, MTT method. It counts as cell-based. As for the experimental part:
(§1) The cells were allowed to adhere overnight.
(§2) Adherent cells: Culture medium was aspirated and 100 μl/wells of basal culture (generally refers to medium without fetal bovine serum (FBS) and other additives) containing 0.5 mg/ml MTT were added. The cells were cultured for 3 hours. MTT-containing basal medium was aspirated and 100 μl/wells of DMSO were added to dissolve formazan.
(§3) Unstably adherent cells: Unstably adherent cells were directly added to the MTT solution to achieve the concentration of 0.5 mg/ml and cultured for 3 hours. The ternary solution in an equal volume to the system was added to the system to dissolve the formazan.
(§4) The DMSO concentration was 0.1%.
A general note: Tetrazolium assays rely on reduction of a dye to a coloured formazan, in cell work by metabolically active cells.

For a further experiment, the system named is LoVo. The experiment can be described thus: In vitro inhibition of human tumor cells, LoVo, SRB method. It counts as cell-based.
Description: as §1
(§5) Trichloroacetic acid was removed. […] Excess SRB was removed.
as §4
A general note: Sulforhodamine B stains cellular protein and so reports cell mass.

The next experiment has as its system MDA-MB-468. As to the kind of experiment: In vitro inhibition of human tumor cells, MDA-MB-468, SRB method.
In a further experiment the test system is SW620. The experiment can be described thus: In vitro inhibition of human tumor cells, SW620, SRB method. The class given is cell-based.
Description: as §1, §5, §4

A further experiment concerns NCI-H460. The experiment can be described thus: In vitro inhibition of human tumor cells, NCI-H460, MTT method. The class given is cell-based. Here is the method: as §1, §2, §3, §4
The subject of experiment [1] is human small cell lung cancer NCI-H446. The note with it: 20 mg/kg i.v. qw × 2; NCI-H446 model.
Description: An allogeneic transplantation model of human small cell lung cancer NCI-H446 was established in nude mice subcutaneously using a tumor block inoculation method. When the tumor volume of the allogeneic transplantation was about 100 to 300 mm^3 and remained stable, the experimental animals were randomly divided into groups according to the size of the tumor volume (day 0, i.e., d0) using a remainder method. The tumor volume was measured 2 to 3 times a week. At the end of the dosage period, the experimental animals were sacrificed. The subcutaneous tumors were peeled and weighed. The anti-tumor activity of the drug against the model was evaluated based on tumor volume and tumor weight-related data.
The calculation formula of the tumor volume was: Volume=0.5×long diameter×short diameter×short diameter.
V0 was the resulting tumor volume measured at the time of dosing in groups (i.e., d0) and Vt was the tumor volume at each measurement.
T was the subject and C was the model control.
TRTV was the average RTV of the subject, and CRTV was the average RTV of the model control group.
Wn: average body weight of each group of experimental animals on day n, and W0: average body weight of each group of experimental animals on day 0.
A further experiment concerns NCI-N87. As to the kind of experiment: In vitro inhibition of human tumor cells, NCI-N87, MTT method. It counts as cell-based.
For another experiment, the system named is HCT116. The experiment can be described thus: In vitro inhibition of human tumor cells, HCT116, MTT method. The class given is cell-based. Here is the method: as §1, §2, §3, §4
Experiment [2] concerns human colon cancer HCT116. The note with it: 30 mg/kg i.v. qw × 2; HCT116 large tumor after irinotecan. The text has this: When the tumor volume was more than 600 mm^3 and stable growth was maintained, the experimental animals were randomly divided by the remainder method and administered according to the size of the tumor volume. […] The subcutaneous tumors were stripped and weighed.
T was the subject and C is the model control.
Tumor volume growth was observed on a regular basis after completion of dosing.

[3] abbreviates: No βGU (direct effects of compound on cells).

Description for MDA-MB-468: 1.1.2 Cell culture method: Cells were cultured in complete medium, 37° C., 5% CO2, saturated humidity to log growth phase (adherent cells generally attended to complete fusion), and cells were collected for subsequent experiments (adherent cells were first digested with trypsin/ethylene diamine tetraacetic acid (EDTA) to remove adherent).
1.1.3 96-well cell culture plates (hereinafter referred to as 96-well plates) were inoculated with a certain number of cells (see Table 1 for details). The cells were allowed to adhere overnight. […] Finally, the total amount of cell protein in the assay wells was determined by the SRB method, or the cell viability was determined by the MTT method:
The culture medium was aspirated from the wells and the cells were fixed for 1 hour or more by adding 10% trichloroacetic acid. Trichloroacetic acid was removed. The resultant was washed with H2O and stained with 0.4% SRB for 15 to 30 minutes. Excess SRB was removed. The resultant was washed with 1% acetic acid. The protein-bound SRB was dissolved by adding 10 mM of 100 μl Tris (trishydroxymethylaminomethane). Tests were carried out at the wavelength of 570 nm.
1.1.4 dilution and addition of β-glucuronidase: 1 to 2 mg of β-glucuronidase was weighed and dissolved in PBS to give a 2 mg/ml of stock solution. […] 80 μl of enzyme working solution was added to the enzyme-containing assay wells. The amount of β-glucuronidase was 1 μg/wells. No enzyme-containing assay wells were added to the 80 μl of complete medium.
The assay wells were charged with 20 μl of 10× compound working solution. The final volume was 200 μl per well. The DMSO concentration was 0.1%.
1.1.6 Compound inhibition activity calculation: The test included a compound test group, a compound-free positive solvent control group (PC) and a compound-free negative solvent control group (NC). […] The average inhibition rate and the standard deviation (SD) were obtained from the repeated test wells. The average inhibition rate was plotted on the basis of the compound concentration as an abscissa and distributed in the form of logarithms. The curve was fitted to the Logistic 4 parameter equation. […] The test was generally repeated to obtain 3 valid results.

One may read the IC50 as the concentration that gives 50% inhibition. High values mean weaker potency in that assay, low ones greater potency in that assay. With “(2S,3S,4S,5R,6S)-6-(3-((1-(6-((4′-((E)-(8-amino-1-hydroxy-5,7-disulfonicnaphthalen-2-yl)diazenyl)-3,3′-dimethyl-[1,1′-biphenyl]-4-yl)amino)-6-oxohexyl)-1H-1,2,3-triazol-4-yl)methoxy)-4-((((S)-4,11-diethyl-4-hydroxy-3,14-dioxy-3,4,12,14-tetrahydro-1H-pyrano[3′,4′:6,7]indolazino[1,2-b]quinolin-9-yl)oxy)methyl)2-methylphenoxy)-3,4,5-trihydroxytetrahydro-2H-pyran-2-carboxylate trisodium [Example 14]”, the IC50 in the experiment on BxPC-3 (Adding βGU) was 16 nM; in the experiment on BxPC-3 (No βGU) it was 406 nM; with LoVo (Adding βGU), 10 nM; in the experiment with LoVo (No βGU), 204 nM; with MDA-MB-468 (Adding βGU) it was 4.4 nM; with MDA-MB-468 (No βGU), 106 nM. The IC50 in the experiment on SW620 (Adding βGU) is 6.3 nM; with SW620 (No βGU), 151 nM; in the experiment with NCI-H460 (Adding βGU), 8.7 nM; in the experiment on NCI-H460 (No βGU) it was 533 nM; in the experiment with NCI-N87 (Adding βGU), 26 nM; with NCI-N87 (No βGU) it was 1480 nM. Also, the figures for the half-maximal inhibitory concentration (IC50) in the experiment on HCT116 (Adding βGU (β-glucuronidase)) and with HCT116 (setting [3]) were 3.3 nM and 175 nM, respectively. Further, the “Relative volume RTV (X ± S.D.)” value in experiment [1] is listed as 0.69 ± 0.45. In addition, the “T/C (%)” value in [1] came to 10.2%. In addition, the “Tumor inhibition rate (%)” value in [1] was 91.3%. In addition, the “Tumor weight (g, X ± S.D.)” value in [1] is 0.085 ± 0.075 g.
Turning to “(2S,3S,4S,5R,6S)-6-(3-((1-(6-((4′-((E)-(8-amino-1-hydroxy-5,7-disulfonicnaphthalen-2-yl)diazenyl)-[1,1′-biphenyl]-4-yl)amino)-6-oxohexyl)-1H-1,2,3-triazol-4-yl)methoxy)-4-((((S)-4-ethyl-4-hydroxy-3,14-dioxo-3,4,12,14-tetrahydro-1H-pyrano[3′,4′:6,7]indolazino[1,2-b]quinolin-9-yl)oxy)methyl)phenoxy)-3,4,5-trihydroxytetrahydro-2H-pyran-2-carboxylate trisodium [Example 29]”, the IC50 in the experiment on BxPC-3 (Adding βGU) is 38 nM; in the experiment on BxPC-3 (No βGU), 916 nM; with LoVo (Adding βGU), 55 nM; with LoVo (No βGU), 1200 nM; in the experiment on MDA-MB-468 (Adding βGU) it was 14 nM; in the experiment on MDA-MB-468 (No βGU), 788 nM. In addition, the IC50 with SW620 (Adding βGU) was 9.6 nM; in the experiment on SW620 (No βGU), 350 nM; in the experiment on NCI-H460 (Adding βGU), 30 nM; in the experiment on NCI-N87 (Adding βGU), 64 nM; with HCT116 (Adding βGU (β-glucuronidase)), 17 nM; in the experiment with HCT116 (setting [3]) it was 1350 nM. Besides, the “inhibition rate at 2 μM” value in the experiment with NCI-H460 (No βGU, 2 μM) is 2 μM about 43.9%; in the experiment on NCI-N87 (No βGU), 2 μM about 31.0%.
In the experiment with MDA-MB-468 (Adding βGU), “(2S,3S,4S,5R,6S)-6-(3-((1-(2-(2-((4′-(E)-(8-amino-1-hydroxy-5,7-disulfonicnaphthalen-2-yl)diazenyl)-3,3′-dimethyl-[1,1′-biphenyl]-4-yl)amino)-3-oxopropoxy)ethyl)-1H-1,2,3-triazol-4-yl)methoxy)-4-((((S)-4,11-diethyl-4-hydroxy-3,14-dioxy-3,4,12,14-tetrahydro-1H-pyrano[3′,4′:6,7]indolazino[1,2-b]quinolin-9-yl)oxy)methyl)phenoxy)-3,4,5-trihydroxytetrahydro-2H-pyran-2-carboxylate trisodium [Example 101]” showed an IC50 of 11 nM. The substance further came in with an IC50 with MDA-MB-468 (No βGU) of 372 nM. The IC50 in the experiment on NCI-N87 (Adding βGU) amounted to 51 nM. In the experiment on NCI-N87 (No βGU), this substance displayed an IC50 of 1240 nM. Further, in experiment [2], the “Relative volume RTV (X ± S.D.)” value came out at 0.90 ± 0.20; the “T/C (%)” value was determined as 24.2%; the “Tumor inhibition rate (%)” value stood at 81.6%; the “Tumor weight (g, X ± S.D.)” value turned out to be 0.501 ± 0.081 g.
As for “(2S,3S,4S,5R,6S)-6-(3-((1-(6-((4′-((E)-(8-amino-1-hydroxy-5,7-disulfonicnaphthalen-2-yl)diazenyl)-[1,1′-biphenyl]-4-yl)amino)-6-oxohexyl)-1H-1,2,3-triazol-4-yl)methoxy)-4-((((S)-4,11-diethyl-4-hydroxy-3,14-dioxo-3,4,12,14-tetrahydro-1H-pyrano[3′,4′:6,7]indolazino[1,7]quinolin-9-yl)oxy)methyl)-2-methylphenoxy)-3,4,5-trihydroxytetrahydro-2H-pyran-2-carboxylate trisodium [Example 18]”, the IC50 with BxPC-3 (Adding βGU) is 17 nM; with BxPC-3 (No βGU), 1620 nM; in the experiment with LoVo (Adding βGU), 19 nM; in the experiment on LoVo (No βGU) it was 812 nM; in the experiment on MDA-MB-468 (Adding βGU), 5.5 nM; in the experiment on MDA-MB-468 (No βGU), 110 nM. In addition, the IC50 with SW620 (Adding βGU) is 6.8 nM; in the experiment with SW620 (No βGU) it was 204 nM; in the experiment with NCI-H460 (Adding βGU), 7.6 nM; in the experiment with NCI-H460 (No βGU) it was 533 nM; with NCI-N87 (Adding βGU) it was 29 nM; in the experiment on HCT116 (Adding βGU (β-glucuronidase)) it was 6.5 nM. The same substance displayed an IC50 with HCT116 (setting [3]) of 186 nM. In the experiment with NCI-N87 (No βGU), the “inhibition rate at 2 μM” value turned out to be 2 μM about 49.3%.
On to “(2S,3S,4S,5R,6S)-6-(3-((1-(6-((4′-((E)-(8-amino-1-hydroxy-5,7-disulfonicnaphthalen-2-yl)diazenyl)-3,3′-dimethoxy-[1,1′-biphenyl]-4-yl)amino)-6-oxohexyl)-1H-1,2,3-triazol-4-yl)methoxy)-4-(((S)-4-ethyl-4-hydroxy-3,14-dioxy-3,4,12,14-tetrahydro-1H-pyrano[3′,4′:6,7]indolazino[1,2-b]quinolin-9-yl)oxy)methyl)phenoxy)-3,4,5-trihydroxytetrahydro-2H-pyran-2-carboxylate trisodium [Example 31]”, for which the IC50 in the experiment with BxPC-3 (Adding βGU) amounted to 21 nM; in the experiment on BxPC-3 (No βGU), 518 nM; in the experiment with LoVo (Adding βGU) it was 32 nM; in the experiment on LoVo (No βGU), 699 nM; in the experiment on MDA-MB-468 (Adding βGU), 11 nM; with MDA-MB-468 (No βGU), 329 nM. The IC50 in the experiment on SW620 (Adding βGU) is 10 nM; with SW620 (No βGU) it was 220 nM; with NCI-H460 (Adding βGU), 19 nM; in the experiment with NCI-H460 (No βGU), 540 nM; in the experiment on NCI-N87 (Adding βGU), 62 nM; in the experiment on NCI-N87 (No βGU) it was 1770 nM. The IC50 stood at 9.3 nM in the experiment on HCT116 (Adding βGU (β-glucuronidase)) and 339 nM with HCT116 (setting [3]).
Regarding “(2S,3S,4S,5R,6S)-6-(3-((1-(8-((4′-((E)-(8-amino-1-hydroxy-5,7-disulfonicnaphthalen-2-yl)diazenyl)-3,3′-dimethyl-[1,1′-biphenyl]-4-yl)amino)-8-oxooctyl)-1H-1,2,3-triazol-4-yl)methoxy)-4-((((S)-4,11-diethyl-4-hydroxy-3,14-dioxy-3,4,12,14-tetrahydro-1H-pyrano[3′,4′:6,7]indolazino[1,2-b]quinolin-9-yl)oxy)methyl)-2-methylphenoxy)-3,4,5-trihydroxytetrahydro-2H-pyran-2-carboxylate trisodium [Example 48]”, the IC50 with BxPC-3 (Adding βGU) worked out at 28 nM; in the experiment with BxPC-3 (No βGU), 432 nM; with LoVo (Adding βGU) it was 28 nM; in the experiment with LoVo (No βGU) it was 372 nM; with MDA-MB-468 (Adding βGU), 7.3 nM; in the experiment with MDA-MB-468 (No βGU), 94 nM. Also, the IC50 is 10 nM with SW620 (Adding βGU); 230 nM in the experiment on SW620 (No βGU); 6.8 nM in the experiment on NCI-H460 (Adding βGU); 419 nM in the experiment on NCI-H460 (No βGU); 52 nM with NCI-N87 (Adding βGU); 1200 nM in the experiment with NCI-N87 (No βGU). Moreover, the half-inhibitory concentration (IC50) turned out to be 5.9 nM with HCT116 (Adding βGU (β-glucuronidase)) and 119 nM in the experiment on HCT116 (setting [3]).
Substance “(2S,3S,4S,5R,6S)-6-(3-((1-(3-(2-((4′-(E)-(8-amino-1-hydroxy-5,7-disulfonicnaphthalen-2-yl)diazenyl)-3,3′-dimethyl-[1,1′-biphenyl]-4-yl)amino)-2-oxoethoxy)propyl)-1H-1,2,3-triazol-4-yl)methoxy)-4-((((S)-4,11-diethyl-4-hydroxy-3,14-dioxy-3,4,12,14-tetrahydro-1H-pyrano[3′,4′:6,7]indolazino[1,7]quinolin-9-yl)oxy)methyl)phenoxy)-3,4, 5-trihydroxytetrahydro-2H-pyran-2-carboxylate trisodium [Example 96]” registered an IC50 in the experiment with MDA-MB-468 (Adding βGU) of 7.5 nM. Besides, half-maximal inhibition in the experiment with MDA-MB-468 (No βGU) (IC50) required 213 nM. The same substance yielded a half-maximal inhibitory concentration (IC50) with NCI-N87 (Adding βGU) of 30 nM. This substance also came in with an IC50 in the experiment on NCI-N87 (No βGU) of 964 nM. In experiment [2], the “Relative volume RTV (X ± S.D.)” value amounted to 0.78 ± 0.03; the “T/C (%)” value amounted to 21.0%; the “Tumor inhibition rate (%)” value worked out at 84.4%; the “Tumor weight (g, X ± S.D.)” value is recorded as 0.425 ± 0.091 g.
